Laboratory results as given in article PMC12091851, “Replacing a Cereblon Ligand by a DDB1 and CUL4 Associated Factor 11 (DCAF11) Recruiter Converts a Selective Histone Deacetylase 6 PROTAC into a Pan‐Degrader” (Chemmedchem, 2025).

Molecular target: T1, HDAC6 (Homo sapiens, UniProt Q9UBN7)
T1 sequence (Q9UBN7 1-1215): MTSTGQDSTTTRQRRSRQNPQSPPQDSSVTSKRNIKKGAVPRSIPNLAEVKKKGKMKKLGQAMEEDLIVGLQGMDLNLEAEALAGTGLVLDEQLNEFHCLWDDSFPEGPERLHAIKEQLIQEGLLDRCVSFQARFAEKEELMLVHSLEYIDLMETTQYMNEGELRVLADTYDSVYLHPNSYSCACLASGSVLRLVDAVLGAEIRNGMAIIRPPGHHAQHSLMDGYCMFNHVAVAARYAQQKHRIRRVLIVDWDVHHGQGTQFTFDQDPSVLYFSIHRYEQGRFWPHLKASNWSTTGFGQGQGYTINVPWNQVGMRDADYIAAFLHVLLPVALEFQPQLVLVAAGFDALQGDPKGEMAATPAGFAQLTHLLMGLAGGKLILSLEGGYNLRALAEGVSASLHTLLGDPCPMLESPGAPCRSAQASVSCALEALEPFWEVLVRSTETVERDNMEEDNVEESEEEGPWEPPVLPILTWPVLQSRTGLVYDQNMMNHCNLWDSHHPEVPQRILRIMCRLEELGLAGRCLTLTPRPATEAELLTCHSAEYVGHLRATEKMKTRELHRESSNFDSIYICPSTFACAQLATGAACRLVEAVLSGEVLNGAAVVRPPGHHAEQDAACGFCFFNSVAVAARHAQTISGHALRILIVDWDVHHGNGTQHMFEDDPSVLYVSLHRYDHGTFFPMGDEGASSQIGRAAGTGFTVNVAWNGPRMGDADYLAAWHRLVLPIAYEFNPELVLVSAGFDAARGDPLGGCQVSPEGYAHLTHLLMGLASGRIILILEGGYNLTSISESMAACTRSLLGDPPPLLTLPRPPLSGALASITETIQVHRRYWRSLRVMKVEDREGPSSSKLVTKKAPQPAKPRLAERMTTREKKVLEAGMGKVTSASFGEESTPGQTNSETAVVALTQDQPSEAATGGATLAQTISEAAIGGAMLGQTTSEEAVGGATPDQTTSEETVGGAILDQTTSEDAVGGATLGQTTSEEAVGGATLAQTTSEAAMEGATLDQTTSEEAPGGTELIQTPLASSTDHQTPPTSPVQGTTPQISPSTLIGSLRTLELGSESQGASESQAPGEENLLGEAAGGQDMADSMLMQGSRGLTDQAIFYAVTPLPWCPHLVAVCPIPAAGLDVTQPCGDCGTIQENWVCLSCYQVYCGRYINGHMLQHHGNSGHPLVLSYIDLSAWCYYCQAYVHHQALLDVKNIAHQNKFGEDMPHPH
Experiment: Simple Western immunoassay, HDAC6 levels in U-87MG cell lysates
Assay type: cell-based
Design: endogenous in cells; host or cells: MM.1S
Conditions: 10 μM, 24 h
Protocol: Figure S5. Analysis of HDAC1 and 6 degradation in U-87MG cells. Simple western immunoassay analysis of U-87MG cell lysates. The cells were treated with the indicated compound (10 µM) or vehicle (DMSO) for 24 h. Top: Quantification of HDAC levels, presented as mean ± standard deviation of n = 2 biological replicates; Significance compared to vehicle: ns = p≥0.05 and *** = p≤0.001. Bottom:
Representative images of n = 2 biological replicates.
(1 picture or pasted object on this page, not shown here)
2. Biological Experiments
No unexpected or unusually high safety hazards were encountered.
The human multiple myeloma cell line MM.1S (CRL-2974) was obtained from American Type Culture Collection (ATCC, Manassas, VA, USA). […]
Louis, MO, USA) according to manufacturer´s instructions. Protein content was determined by Pierce™ BCA Protein Assay Kit (Catalog# 23225, Thermo Fisher Scientific Inc.) according to manufacturer´s guidelines. […]
Fluorescence Separation 8x25 Capillary Cartridges (Catalog# SM-FL004-1, Protein Simple, Bio-Techne, Minneapolis, MN, USA) were used for separation and the Anti-Mouse Detection Module (Catalog# DM-002, Protein Simple) was used for detection with addition of 20x Anti-Rabbit HRP […]
Conjugate (Catalog# 043-426, Protein Simple) according to manufacturer´s instructions. […] Evaluation and quantification was performed with the compass software (6.2.0, Protein Simple). […]

**Q.** For `O=C(CCCCCCNC(=O)c1ccc(NC(=O)CCCCCCCCCCCN(C(=O)CCl)C(C(=O)NCc2ccccc2)c2ccc(Cl)c(Cl)c2)cc1)NO` (stereo not shown) [Compound 1j], which “HDAC6 degradation in U-87MG cells” value is on record?
**A.** significant HDAC1 and 6 degradation
